Data on one compound can be found in patent US20020016346A1, “Method for enhancing outflow of aqueous humor in treatment of glaucoma” (The Regents University of California, a California …, priority 1994, published 2002).

The target in this test is T1, Na—K—Cl cotransport (Bos taurus, UniProt F1MS08).
T1 sequence (F1MS08 1-1204): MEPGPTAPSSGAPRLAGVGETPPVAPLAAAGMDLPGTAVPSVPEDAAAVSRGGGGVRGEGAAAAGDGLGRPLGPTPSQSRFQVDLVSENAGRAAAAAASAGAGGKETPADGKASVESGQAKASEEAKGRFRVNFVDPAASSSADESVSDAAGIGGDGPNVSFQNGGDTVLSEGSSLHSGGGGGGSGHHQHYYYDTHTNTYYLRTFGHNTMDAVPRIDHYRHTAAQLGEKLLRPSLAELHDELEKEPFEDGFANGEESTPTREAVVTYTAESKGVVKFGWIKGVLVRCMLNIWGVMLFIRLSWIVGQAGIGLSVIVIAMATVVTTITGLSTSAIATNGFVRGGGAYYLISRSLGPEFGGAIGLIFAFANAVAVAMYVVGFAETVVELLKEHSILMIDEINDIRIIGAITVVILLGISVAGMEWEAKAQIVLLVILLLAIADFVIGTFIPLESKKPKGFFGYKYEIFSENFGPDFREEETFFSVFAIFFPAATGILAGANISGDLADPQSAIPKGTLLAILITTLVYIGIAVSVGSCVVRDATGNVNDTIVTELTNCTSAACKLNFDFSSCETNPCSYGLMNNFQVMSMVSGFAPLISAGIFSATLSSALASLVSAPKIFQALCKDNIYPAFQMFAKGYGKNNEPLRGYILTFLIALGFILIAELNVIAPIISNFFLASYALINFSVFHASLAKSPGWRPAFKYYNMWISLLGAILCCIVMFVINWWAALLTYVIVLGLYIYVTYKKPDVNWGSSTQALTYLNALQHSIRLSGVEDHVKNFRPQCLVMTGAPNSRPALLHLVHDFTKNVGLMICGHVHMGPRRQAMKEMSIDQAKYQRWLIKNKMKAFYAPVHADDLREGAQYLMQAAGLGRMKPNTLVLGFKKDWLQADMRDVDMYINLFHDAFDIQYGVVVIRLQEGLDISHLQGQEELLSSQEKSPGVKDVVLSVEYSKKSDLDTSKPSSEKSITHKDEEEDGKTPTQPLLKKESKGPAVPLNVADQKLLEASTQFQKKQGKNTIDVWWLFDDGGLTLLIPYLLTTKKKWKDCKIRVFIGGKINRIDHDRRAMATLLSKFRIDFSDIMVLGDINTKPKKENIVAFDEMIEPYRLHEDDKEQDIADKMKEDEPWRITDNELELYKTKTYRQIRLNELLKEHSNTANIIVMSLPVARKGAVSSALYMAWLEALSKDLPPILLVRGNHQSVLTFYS
The experiment in a line: K influx (86Rb) in bovine TM cell monolayers. It counts as cell-based. Here is the method:
Details of this method have been published previously (O'Donnell, M. E., supra, 1989). Briefly, bovine or human TM cell monolayers on 24 well plates were equilibrated for 10 minutes at 37° C. in a Hepes-buffered minimal essential medium (MEM) containing (in mM): 144 Na, 147 Cl, 5.8 K, 1.2 Ca, 4.2 HCO3, 0.4 H2PO4, […], 0.4 SO4, 5.6 glucose and 20 Hepes. […] The assay medium also contained ^86Rb (1 μCi/ml) (Dupont New England Nuclear, Boston, Mass.). The assay was terminated by rinsing the wells with ice-cold isotonic MgCl2, then extracting the contents with 0.2% sodium dodecyl sulfate (SDS), and determining the amount of radioactive contents by liquid scintillation. Osmolarities of all preincubation and assay media were verified by osmometry (Model 3W2, Advanced Instruments, Norwood, Mass.).
The effects of hormones, neurotransmitters and second messengers on Bumetanide-sensitive K influx of bovine trabecular meshwork cells were assessed using the procedures of Example 1. […] The control is the Hepes-buffered medium containing Na, K, Cl, CA and other ions as described in Example 1B. […] The data represent the mean values±SEM of quadruplicate determinations from two experiments.

As for `CCCCNc1cc(C(=O)O)cc(S(N)(=O)=O)c1Oc1ccccc1` [bumetanide], for the setting “10 μM bumetanide, total K uptake without drug 49±1.47”, the K influx is listed as 22.09±1.14 μmol K/gm protein/min. For the same compound, the “BUMETANIDE-SENSITIVE K INFLUX” value (with Na/K pump inhibition (ouabain)) turned out to be 20.1 μmol K/gm protein/min and the “BUMETANIDE-SENSITIVE K INFLUX” value (without Na/K pump inhibition) is 26.9 μmol K/gm protein/min.
